Assay results published in ChEMBL document CHEMBL1151404, “Modification and evaluation of the potato disc assay and antitumor screening of euphorbiaceae seeds” (1982).

Assays:
Assay type in all cases: functional
[1] = system: Agrobacterium tumefaciens; test: Antitumor activity against Agrobacterium tumefaciens B6-induced tumor formation at 10 ug/disk after 12 days by potato disk assay; settings: B6, 288 h
[2] = system: Agrobacterium tumefaciens; test: Antitumor activity against Agrobacterium tumefaciens B6-induced tumor formation at 5 ug/disk after 12 days by potato disk assay; settings: B6, 288 h
[3] = system: Agrobacterium tumefaciens; test: Antitumor activity against Agrobacterium tumefaciens B6-induced tumor formation at 2.5 ug/disk after 12 days by potato disk assay; settings: B6, 288 h
P388 = test: Antitumor activity against mouse P388 cells xenografted mouse assessed as increase in life span relative to control
[4] = system: Agrobacterium tumefaciens; test: Antitumor activity against Agrobacterium tumefaciens B6-induced tumor formation at 1.5 ug/disk after 12 days by potato disk assay; settings: B6, 288 h

Row | SMILES | inhibition at 10 µg/disc [1] | inhibition at 5 µg/disc [2] | inhibition at 2.5 µg/disc [3] | T/C (P388) | inhibition at 1.5 µg/disc [4]
1 | COc1ccc(C[C@H]2C(=O)N[C@@H](C)C(=O)N(C)[C@@H]3C(=O)N(C)[C@@H](Cc4ccc(O)c(c4)Oc4ccc(cc4)[C@@H]3O)C(=O)N[C@@H](C)C(=O)N[C@@H](C)C(=O)N2C)cc1 [BOUVARDIN] | -40% | -15% | 14% | 188% | –
2 | COC(=O)C[C@](O)(CCCC(C)(C)O)C(=O)O[C@@H]1C(OC)=C[C@]23CCCN2CCc2cc4c(cc2[C@H]13)OCO4 [OMACETAXINE MEPESUCCINATE] | -79% | -64% | -72% | 238% | –
3 | COc1cc2cc(c1Cl)N(C)C(=O)C[C@H](OC(=O)[C@H](C)N(C)C(=O)C(C)C)[C@]1(C)O[C@H]1[C@H](C)[C@@H]1C[C@@](O)(NC(=O)O1)[C@H](OC)/C=C/C=C(\C)C2OC (some centres not stated) [TREWIASINE] | -100% | -100% | -100% | 168% | -100%
4 | CC[C@]1(O)C[C@H]2CN(CCc3c([nH]c4ccccc34)[C@@](C(=O)OC)(c3cc4c(cc3OC)N(C=O)[C@H]3[C@@](O)(C(=O)OC)[C@H](OC(C)=O)[C@]5(CC)C=CCN6CC[C@]43[C@@H]65)C2)C1 [VINCRISTINE] | -44% | -36% | -17% | 242% | –
